Active and inactive are the calls of the source.
Experiments:
[1] = inhibitors of intracellular T. cruzi replication, confirmation, NIH3T3 host cells, beta-gal luminescence (AID 2044); format: functional, cell-based;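 note: intracellular parasites grown in NIH/3T3 mouse fibroblasts as host cells; luminescent beta-galactosidase reporter signal from transgenic T. cruzi replicating inside host cells; inhibitors lower the luminescence signal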
[2] = cytotoxicity toward NIH3T3 fibroblasts, dose response, counter-screen, cell-based, ATP luminescence, mouse fibroblasts (AID 2010); format: functional;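 note: cells exposed to compound for about 90 hours before reading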
[3] = target: Voltage-dependent T-type calcium channel subunit alpha-1H (Homo sapiens, UniProt O95180); format: functional;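 note: channel activity triggered by adding a high calcium stimulation buffer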
Sequence of Voltage-dependent T-type calcium channel subunit alpha-1H (O95180 whole entry): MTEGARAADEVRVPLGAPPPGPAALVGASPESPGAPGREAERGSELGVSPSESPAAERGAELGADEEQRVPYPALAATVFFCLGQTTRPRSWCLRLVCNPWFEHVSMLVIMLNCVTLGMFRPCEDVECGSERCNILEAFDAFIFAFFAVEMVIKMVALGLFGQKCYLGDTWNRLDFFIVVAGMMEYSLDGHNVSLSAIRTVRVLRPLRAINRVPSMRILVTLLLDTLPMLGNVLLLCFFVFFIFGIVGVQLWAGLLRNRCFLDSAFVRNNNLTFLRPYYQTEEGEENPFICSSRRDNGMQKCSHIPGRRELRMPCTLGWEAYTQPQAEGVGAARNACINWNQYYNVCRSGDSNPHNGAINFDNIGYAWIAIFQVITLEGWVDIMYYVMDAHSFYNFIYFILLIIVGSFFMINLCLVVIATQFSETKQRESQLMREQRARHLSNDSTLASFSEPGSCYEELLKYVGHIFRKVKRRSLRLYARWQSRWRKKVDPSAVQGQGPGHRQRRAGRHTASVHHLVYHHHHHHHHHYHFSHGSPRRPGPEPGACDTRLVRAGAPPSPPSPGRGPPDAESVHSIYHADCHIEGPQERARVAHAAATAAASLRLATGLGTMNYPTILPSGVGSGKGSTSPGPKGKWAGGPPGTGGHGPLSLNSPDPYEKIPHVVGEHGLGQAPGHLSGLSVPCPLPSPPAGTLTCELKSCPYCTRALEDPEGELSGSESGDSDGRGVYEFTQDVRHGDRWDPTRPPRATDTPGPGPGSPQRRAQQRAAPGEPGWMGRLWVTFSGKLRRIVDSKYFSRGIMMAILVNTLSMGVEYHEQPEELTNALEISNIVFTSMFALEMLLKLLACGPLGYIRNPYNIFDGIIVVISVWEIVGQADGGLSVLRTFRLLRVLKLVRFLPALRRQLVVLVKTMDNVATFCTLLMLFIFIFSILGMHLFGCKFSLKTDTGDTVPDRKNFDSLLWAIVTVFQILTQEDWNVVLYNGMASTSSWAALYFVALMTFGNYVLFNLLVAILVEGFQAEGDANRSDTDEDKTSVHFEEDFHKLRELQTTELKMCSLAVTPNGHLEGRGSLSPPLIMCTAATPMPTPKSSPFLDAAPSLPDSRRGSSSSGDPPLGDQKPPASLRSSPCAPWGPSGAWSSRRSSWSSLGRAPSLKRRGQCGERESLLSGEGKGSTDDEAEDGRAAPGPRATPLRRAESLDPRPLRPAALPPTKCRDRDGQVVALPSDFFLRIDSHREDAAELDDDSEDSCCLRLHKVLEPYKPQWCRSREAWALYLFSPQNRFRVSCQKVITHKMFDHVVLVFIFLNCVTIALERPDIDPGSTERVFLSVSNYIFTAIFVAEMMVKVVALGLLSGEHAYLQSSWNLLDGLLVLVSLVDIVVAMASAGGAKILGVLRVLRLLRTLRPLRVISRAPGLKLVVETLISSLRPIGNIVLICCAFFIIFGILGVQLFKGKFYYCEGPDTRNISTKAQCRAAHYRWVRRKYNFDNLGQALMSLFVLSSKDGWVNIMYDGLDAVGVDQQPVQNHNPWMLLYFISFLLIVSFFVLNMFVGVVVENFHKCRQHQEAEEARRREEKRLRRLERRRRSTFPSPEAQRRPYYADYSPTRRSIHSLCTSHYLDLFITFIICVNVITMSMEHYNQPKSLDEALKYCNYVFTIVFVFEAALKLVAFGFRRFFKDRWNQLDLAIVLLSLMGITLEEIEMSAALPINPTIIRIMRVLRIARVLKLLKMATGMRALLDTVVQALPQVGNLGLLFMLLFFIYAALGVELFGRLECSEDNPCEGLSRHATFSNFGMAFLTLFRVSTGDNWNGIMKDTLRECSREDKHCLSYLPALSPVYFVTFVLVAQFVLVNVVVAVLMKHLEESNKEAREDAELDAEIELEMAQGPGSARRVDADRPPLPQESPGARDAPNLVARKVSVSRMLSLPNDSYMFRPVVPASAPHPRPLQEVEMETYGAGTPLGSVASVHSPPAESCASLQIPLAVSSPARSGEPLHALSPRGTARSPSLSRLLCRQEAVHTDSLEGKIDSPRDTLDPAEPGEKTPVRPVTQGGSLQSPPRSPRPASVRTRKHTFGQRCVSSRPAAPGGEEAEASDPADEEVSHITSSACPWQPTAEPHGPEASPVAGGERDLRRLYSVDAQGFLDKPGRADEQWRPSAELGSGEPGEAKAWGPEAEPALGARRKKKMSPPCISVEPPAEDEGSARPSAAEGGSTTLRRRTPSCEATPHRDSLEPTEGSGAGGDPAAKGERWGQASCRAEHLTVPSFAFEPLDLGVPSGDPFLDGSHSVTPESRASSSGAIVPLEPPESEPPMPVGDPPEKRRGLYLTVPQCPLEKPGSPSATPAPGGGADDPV

[4] = THP-1 cell cytotoxicity, dose response, cytotoxicity control for non-replicating M. tuberculosis project (AID 489025); format: functional
[5] = HepG2 cell cytotoxicity, dose response, cytotoxicity control for non-replicating M. tuberculosis project (AID 489018); format: functional; settings: Mycobacterium tuberculosis
[6] = Vero E6 cell cytotoxicity, dose response, cytotoxicity control for non-replicating M. tuberculosis project, secondary assay (AID 492998); format: functional, VeroE6; settings: Vero C1008
[7] = cells; format: functional
[8] = tested on: BJ; assay: cytotoxicity toward BJ-TERT fibroblasts, dose response, cell-based, RAS-independent, luminescence (AID 1933); format: functional; settings: Homo sapiens
[9] = tested on: BJ; assay: cells; format: functional, cell-based; settings: Homo sapiens
[10] = growth suppression of PTEN-null colon cells, dose response, cell-based, HCT116 PTEN knockout (AID 1047); format: functional;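 note: HCT116 colon tumor cells with PTEN knocked out; cells exposed to compound for 60 hours before readout; potency for loss of cell viability measured by luminescence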
[11] = growth suppression of beta-catenin-knockout colon cells, dose response, cell-based, HCT116, human colon tumor (AID 1045); format: functional;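 note: HCT116 colon tumor cells with beta catenin knocked out; cells exposed to compound for 60 hours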
[12] = tested on: BJ; assay: cytotoxicity toward BJ-TERT-LT-ST fibroblasts, dose response, cell-based, RAS-independent, luminescence (AID 1935); format: functional; settings: Homo sapiens;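 note: BJ fibroblasts immortalized with TERT plus LT and ST oncogenes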
[13] = cytotoxicity toward DRD oncogenic fibroblasts, dose response, cell-based, non-viral oncogenic, luminescence (AID 1934); format: functional; settings: Homo sapiens
[14] = target: T1, Microphthalmia-associated transcription factor (Homo sapiens, UniProt O75030); assay: TRPM1 promoter luciferase signal decrease, dose response, MITF inhibitor project, cell-based, SK-MEL-5, cherry-picked, set 3 (AID 493073); format: functional
T1 sequence (O75030 whole entry): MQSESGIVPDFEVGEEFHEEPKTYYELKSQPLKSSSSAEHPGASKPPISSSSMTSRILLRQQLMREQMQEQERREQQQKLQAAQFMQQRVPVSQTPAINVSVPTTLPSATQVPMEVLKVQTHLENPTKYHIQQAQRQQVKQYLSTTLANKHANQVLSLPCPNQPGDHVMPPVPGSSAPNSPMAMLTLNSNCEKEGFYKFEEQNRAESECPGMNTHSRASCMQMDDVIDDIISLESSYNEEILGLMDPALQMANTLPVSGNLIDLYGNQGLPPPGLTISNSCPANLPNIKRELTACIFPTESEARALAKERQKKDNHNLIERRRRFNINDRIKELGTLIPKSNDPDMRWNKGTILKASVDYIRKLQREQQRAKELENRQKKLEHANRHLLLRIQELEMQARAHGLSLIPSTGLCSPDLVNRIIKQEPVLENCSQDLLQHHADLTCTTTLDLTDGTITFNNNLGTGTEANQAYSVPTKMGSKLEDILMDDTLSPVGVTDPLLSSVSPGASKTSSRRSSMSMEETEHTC

[15] = cytotoxicity in HEK-293T cells, dose response, cytotoxicity control for BCR NF-kB inhibitor project, luminescence, B-cell screen hits (AID 489021); format: functional, cell-based;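 note: HEK-293T cells carrying an NF-kB luciferase reporter; cells exposed to compound for about 14 hours before viability readout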
[16] = Shn3 3'UTR reporter inhibitors, dose response, cell-based, Clone20 osteoblasts, firefly luciferase, cherry-picked (AID 624132); format: functional;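 note: firefly luciferase luminescence from reporter carrying the Shn3 3'UTR in osteoblasts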
[17] = HepG2 cell cytotoxicity, dose response, cytotoxicity control for Shn3 inhibitor project, CellTiter-Glo, cherry-picked (AID 624134); format: functional, cell-based
[18] = control 3'UTR Renilla luciferase suppression, dose response, counter-screen for Shn3 inhibitor project, cell-based, Clone20-Shn3RL, cherry-picked (AID 624133); format: functional
[19] = microbe, parasite or virus in culture; format: functional; settings: Mycobacterium tuberculosis
[20] = target: T2, Protein skinhead-1 (Caenorhabditis elegans, UniProt P34707); format: functional
T2 sequence (P34707 whole entry): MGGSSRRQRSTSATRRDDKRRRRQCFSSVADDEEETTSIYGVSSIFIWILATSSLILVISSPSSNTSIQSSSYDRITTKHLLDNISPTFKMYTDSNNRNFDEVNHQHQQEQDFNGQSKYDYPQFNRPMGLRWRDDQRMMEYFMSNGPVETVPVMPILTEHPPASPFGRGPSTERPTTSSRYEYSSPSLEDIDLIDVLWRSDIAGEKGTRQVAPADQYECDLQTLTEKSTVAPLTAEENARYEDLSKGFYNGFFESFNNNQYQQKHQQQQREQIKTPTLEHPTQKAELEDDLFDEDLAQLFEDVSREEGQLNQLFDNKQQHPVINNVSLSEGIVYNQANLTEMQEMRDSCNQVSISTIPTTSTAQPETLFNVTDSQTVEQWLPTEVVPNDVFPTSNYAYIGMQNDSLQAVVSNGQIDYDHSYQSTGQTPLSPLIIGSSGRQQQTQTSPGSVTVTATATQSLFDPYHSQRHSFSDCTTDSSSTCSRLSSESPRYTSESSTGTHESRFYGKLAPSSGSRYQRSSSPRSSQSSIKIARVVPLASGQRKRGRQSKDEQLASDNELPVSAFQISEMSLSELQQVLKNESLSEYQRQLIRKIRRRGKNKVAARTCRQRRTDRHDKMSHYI

[21] = target: Ion channel NompC (Danio rerio, UniProt Q7T1G6); assay: Dose response cell-based high-throughput screening assay for agonists of the transient receptor potential channel N1 (TRPN1). [Related pubchem assays (depositor defined):AID1424, AID1448]; format: functional
Sequence of Ion channel NompC (Q7T1G6 whole entry): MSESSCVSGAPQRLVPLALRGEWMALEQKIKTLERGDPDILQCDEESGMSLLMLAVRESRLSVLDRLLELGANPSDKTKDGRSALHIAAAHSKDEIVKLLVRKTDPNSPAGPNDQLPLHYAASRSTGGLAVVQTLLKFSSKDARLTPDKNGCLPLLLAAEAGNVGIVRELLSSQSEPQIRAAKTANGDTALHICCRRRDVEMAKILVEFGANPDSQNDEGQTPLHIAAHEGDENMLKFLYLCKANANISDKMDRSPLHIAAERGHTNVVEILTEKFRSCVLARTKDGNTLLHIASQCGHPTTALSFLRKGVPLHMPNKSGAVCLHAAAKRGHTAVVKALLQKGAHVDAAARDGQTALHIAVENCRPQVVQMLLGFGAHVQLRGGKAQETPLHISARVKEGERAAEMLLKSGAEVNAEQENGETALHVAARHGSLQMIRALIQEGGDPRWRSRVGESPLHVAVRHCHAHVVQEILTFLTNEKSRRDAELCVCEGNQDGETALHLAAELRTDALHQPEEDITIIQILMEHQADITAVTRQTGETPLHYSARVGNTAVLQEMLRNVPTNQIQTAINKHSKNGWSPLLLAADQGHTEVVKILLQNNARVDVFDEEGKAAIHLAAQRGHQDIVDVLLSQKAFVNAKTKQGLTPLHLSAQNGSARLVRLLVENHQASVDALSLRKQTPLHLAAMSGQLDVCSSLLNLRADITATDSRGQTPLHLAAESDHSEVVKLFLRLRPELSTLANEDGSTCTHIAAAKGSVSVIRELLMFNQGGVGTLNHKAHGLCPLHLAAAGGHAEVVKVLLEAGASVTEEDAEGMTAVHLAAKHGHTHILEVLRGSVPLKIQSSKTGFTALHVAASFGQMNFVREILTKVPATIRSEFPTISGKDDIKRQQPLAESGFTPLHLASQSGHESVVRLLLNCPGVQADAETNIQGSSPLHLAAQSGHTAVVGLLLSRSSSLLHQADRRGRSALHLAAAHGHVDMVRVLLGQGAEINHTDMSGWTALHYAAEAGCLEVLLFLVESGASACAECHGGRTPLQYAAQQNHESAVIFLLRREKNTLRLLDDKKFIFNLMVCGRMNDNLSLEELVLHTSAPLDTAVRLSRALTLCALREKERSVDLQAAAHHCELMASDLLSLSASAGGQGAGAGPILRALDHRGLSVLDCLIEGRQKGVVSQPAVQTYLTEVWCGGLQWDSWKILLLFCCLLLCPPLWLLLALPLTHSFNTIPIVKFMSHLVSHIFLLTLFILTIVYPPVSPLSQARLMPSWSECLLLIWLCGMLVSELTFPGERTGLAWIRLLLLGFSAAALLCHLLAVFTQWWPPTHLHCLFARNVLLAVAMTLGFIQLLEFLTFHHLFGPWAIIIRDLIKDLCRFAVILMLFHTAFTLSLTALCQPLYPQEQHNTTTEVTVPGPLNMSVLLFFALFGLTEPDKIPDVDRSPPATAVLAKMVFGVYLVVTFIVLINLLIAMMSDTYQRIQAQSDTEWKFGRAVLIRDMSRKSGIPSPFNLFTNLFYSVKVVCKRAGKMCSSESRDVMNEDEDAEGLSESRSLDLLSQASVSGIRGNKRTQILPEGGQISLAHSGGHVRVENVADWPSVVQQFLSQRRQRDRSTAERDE

[22] = target: T3, Mucolipin-3 (Homo sapiens, UniProt Q8TDD5); assay: Fluorescence counterscreen assay for […] agonists: dose response cell-based high-throughput screening assay to identify agonists of the transient receptor potential channel ML3 (TRPML3). [Related pubchem assays: 1424, 1448 ]; format: functional
T3 sequence (Q8TDD5 whole entry): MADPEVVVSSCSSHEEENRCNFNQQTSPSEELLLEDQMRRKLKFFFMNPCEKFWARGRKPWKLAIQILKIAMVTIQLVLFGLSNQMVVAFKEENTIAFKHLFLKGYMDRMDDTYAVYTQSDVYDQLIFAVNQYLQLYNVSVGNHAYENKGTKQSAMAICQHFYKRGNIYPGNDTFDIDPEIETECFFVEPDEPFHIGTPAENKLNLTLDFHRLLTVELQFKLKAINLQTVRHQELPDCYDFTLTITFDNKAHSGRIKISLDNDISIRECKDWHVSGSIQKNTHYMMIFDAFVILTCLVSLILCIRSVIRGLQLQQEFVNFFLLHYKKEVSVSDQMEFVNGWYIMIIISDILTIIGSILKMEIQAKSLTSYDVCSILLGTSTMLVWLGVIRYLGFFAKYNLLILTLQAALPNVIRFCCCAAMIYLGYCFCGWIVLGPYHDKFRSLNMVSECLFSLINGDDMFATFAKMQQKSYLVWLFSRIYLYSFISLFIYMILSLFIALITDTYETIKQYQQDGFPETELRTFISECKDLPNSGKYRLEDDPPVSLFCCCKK

CCCCN(CC)S(=O)(=O)c1ccc(C(=O)Nc2nnc(-c3cccs3)o2)cc1
EC50 [1]: 1.22 µM (active) | EC50 [2]: 5.48 µM (active) | EC50 [3]: 2.67 µM (active) | CC50 [4]: 3.18 µM (active) | CC50 [5]: 9.5 µM (active) | CC50 [6]: 4.23 µM (active) | IC50 [7]: 4.66 µM (active)

COc1ccc(C(C(=O)NC2CCCCC2)N(C(=O)CCl)c2ccc(OC)cc2)cc1 (stereo not drawn)
EC50 [8]: 1.15 µM (inconclusive) | EC50 [9]: 5.19 µM (active) | EC50 [10]: 0.959 µM (active) | EC50 [11]: 0.721 µM (active) | EC50 [12]: 8.28 µM (inconclusive) | EC50 [13]: 1.26 µM (active) | AC50 [14]: 9.27 µM (active) | IC50 [15]: > 80 µM (inactive) | AC50 [16]: 5.56 µM (active) | AC50 [17]: > 70 µM (inactive) | AC50 [18]: 14.8 µM (active)

CCCC(NCC(O)COc1ccc(-c2ccccc2)cc1)c1ccccc1 (stereo not drawn)
EC50 [1]: 2.1 µM (active) | CC50 [19]: 12.6 µM (active) | EC50 [2]: 17.6 µM (active) | CC50 [4]: 15.7 µM (active) | CC50 [5]: > 20 µM (active) | CC50 [6]: 12.7 µM (active) | IC50 [7]: 12 µM (active) | IC50 [20]: > 100 µM (inactive)

O=C(O)c1cc2c(cc1Br)OCCCO2
EC50 [21]: > 29.9 µM (inactive) | EC50 [22]: > 29.9 µM (not active)

— ChEMBL document CHEMBL1201862, “PubChem BioAssay data set” (2004)
